Assay results reported in US4250259A, “Microbiological production of ketones from C3 -C6 secondary alcohols” (priority 1979, dated 1981).
“Also recorded” adds a separate entry of the source.

How the values were obtained:
[1] = test system: secondary alcohol dehydrogenase (SADH), cell-free soluble extract; test: oxidation of sec-alcohols by cell-free soluble extracts; assay type: biochemical, Methylococcus capsulatus CRL M1 (NRRL B-11,219); conditions: for Oxidation Rate, sec-alcohol to corresponding ketone: soluble crude extract, grown on methanol
Protocol: (§1) To prepare the cell-free secondary alcohol dehydrogenase (SADH) system, the washed cells were disrupted with a Wave Energy Ultrasonic Oscillator, Model W201 (Wave Energy System, Inc., Newtown, Pa.) and centrifuged at 20,000×g. for 30 minutes. […] The enzyme activity was measured with a fluorescence spectrophotometer (Perkin Elmer, Model MPF 44A) by following the formation of reduced NAD (EX 340 nm, Em 460 nm). The formation of reduced NAD was also followed with an absorption spectrophotometer at 340 nm. The assay system (3 ml.) contained: potassium phosphate buffer pH 7.0; 150 μmol.; NAD 1 μmol.; a given amount of enzyme preparation; and secondary alcohol 10 μmol. The reaction was started by the addition of substrate. One unit of enzyme activity represents the reduction of one μmole NAD per minute. Protein concentrations were determined by the Lowry method (J. Biol. Chem., 193: 255-275 (1951)).
(§2) The experimental procedure for the tests reported in Table VIII were as follows: 1 mg protein of crude extract was added into a 0.5 ml. 0.05 M phosphate buffer (pH 7.0) in a 10-ml. vial. […] The reaction mixture was incubated at 30° C. on a water bath. A 3 μl sample was removed with a syringe at 15 min. of incubation and was assayed with g.l.c. Catalytic activity was also assayed by fluorescence spectrophotometry.

[2] = test system: Hansenula polymorpha ATCC 26012; test: sec-alcohols to ketones by cell suspensions of yeasts; assay type: cell-based
[3] = test system: cell extracts (NAD+-dependent secondary alcohol dehydrogenase); test: sec-alcohols to methyl ketones by cell extracts of yeasts, gas chromatography; assay type: biochemical, Candida utilis ATCC 26,387; conditions: grown on methanol
Protocol: The supernantant liquid was termed the crude extracts.
The reaction mixture, in a total of 3.0 ml., contained 50 mM phosphate buffer, pH 7.0, 20 μmole NAD^+, cell extracts (1 ml.).
The ketone product obtained from oxidation of sec-alcohols by cell extracts of organisms were estimated by flame ionization gas chromatography by using a stainless steel column (12 ft. by 1/8 in.) packed with 10% Carbowax 20 M on 80/100 chromosorb w column (Perkin Elmer Corp., Norwalk, Conn.). The column temperature was maintained isothermally at 130° C. and the carrier gas flow was 30 ml. of helium per min. […] The protein content of cell-suspensions was determined by the Lowry et al. method.
NRRL Y-11,328 Torulopsis sp.

Pichia sp. NRRL-Y-11328 = test: sec-alcohols to ketones by cell suspensions of yeasts; assay type: cell-based
[4] = test system: cell extracts (NAD+-dependent secondary alcohol dehydrogenase); test: sec-alcohols to methyl ketones by cell extracts of yeasts, gas chromatography; assay type: biochemical, Torulopsis sp. strain A1 NRRL-Y-11,419; conditions: grown on methanol
[5] = test system: Pseudomonas MS ATTC 25262 (Facultative); test: sec-alcohols to ketones by resting cell suspensions; assay type: cell-based; conditions: methanol-grown cells
Protocol: (§3) The pH of the nutrient medium was adjusted to 7.0 by the addition of acid or base and 50 ml. samples of the nutrient medium were charged into a plurality of 300 ml. shaker flasks. The shaker flasks were inoculated with an inoculating loop of cells from an agar plate containing homogeneous colonies of the microorganisms on the plate (the purity of the isolates was confirmed by microscopic examination). The isolates had been maintained on methanol (0.4% V/V) agar plates or on agar plates under an atmosphere of methane and air having a 1:1 V/V gas ratio which had been transferred every two weeks. For growth on methanol, the medium was supplemented with 0.4% methanol. For growth on methane, the gaseous phase of the inoculated flasks was replaced with a gas mixture comprised of methane and air having a ratio of 1:1 on a V/V basis. The inoculated flasks were sealed air-tight and were incubated on a rotary shaker of orbital radius 2.5 cm. at 250 rpm and at 30° C. for two days until turbidity in the medium had developed. The cells were harvested by centrifugation at 10,000×g. at 4° C. for 30 minutes. The cell pellet was washed twice with a 0.05 M phosphate buffer at a pH of 7.0 (containing 0.02 M MgCl2). The washed cells were then suspended in a 0.05 M phosphate buffer at pH 7.0.
(§4) A 0.5 ml. sample of each washed cell suspension (2 mg. cells) was put into 10 ml. vials at 4° C. which were sealed with a rubber cap. The gaseous phase of the vials was removed with vacuum and then was replaced with a gas mixture of the substrate reactant (i.e., alkane or secondary alcohol) and oxygen at a 1:1 V/V ratio. (In the case of a liquid substrate, i.e., secondary alcohol, 10 μl of the substrate was put in the 10 ml. vials). […] Samples of product (1-3 μl) were withdrawn periodically with a microsyringe and the products were analyzed by gas chromatography (ionization flame detector column).
(§5) The procedure in Example 1 was repeated except that a plurality of methanol-utilizing methylotrophic microorganisms were each aerobically grown in a methanol-containing nutrient medium instead of a methane-containing medium. The nutrients in the medium were the same as indicated in Example 1 except that 0.4% V/V methanol was used as the alcohol dehydrogenase inducer and as the major carbon and energy source for growth. The cells were harvested and washed as described in Example 1. The resting microbial cells of the induced methanol-grown methanol-utilizing methylotrophic microorganisms were then contacted with C3 -C6 secondary alcohols in a buffered solution by the procedure of Example 1.

[6] = test system: Pseudomonas sp. ATCC 21439 (Obligate); test: as above; assay type: cell-based; conditions: methanol-grown cells
Protocol: as §3, §4, §5

[7] = test system: secondary alcohol dehydrogenase (SADH), cell-free soluble extract; test: oxidation of sec-alcohols by cell-free soluble extracts; assay type: biochemical, Methylosinus trichosporium OB3b (NRRL B-11,196); conditions: for Oxidation Rate, sec-alcohol to corresponding ketone: soluble crude extract, grown on methanol
Protocol: as §1, §2

[8] = test system: cell suspensions of C1-utilizers; test: studies on production of 2-butanone from 2-butanol by cell suspensions of the strains tested; assay type: cell-based; conditions: for rate of oxidation of secondary alcohols by strains of C1-utilizers: cell suspensions
Excerpt: The following summarizes tests conducted on the optimal conditions for the production of methyl ketones from C3 -C6 sec. alcohols.
The substrate specificity for the oxidation of C3 -C6 secondary alcohols by the strains of C1 -utilizers was studied.

[9] = test system: cell extracts (NAD+-dependent secondary alcohol dehydrogenase); test: sec-alcohols to methyl ketones by cell extracts of yeasts, gas chromatography; assay type: biochemical, Pichia sp. NRRL-Y-11,328; conditions: grown on methanol
[10] = test system: secondary alcohol dehydrogenase (SADH), cell-free soluble extract; test: oxidation of sec-alcohols by cell-free soluble extracts; assay type: biochemical, Methylobacterium organophilum CRL 26 (NRRL B-11,222); conditions: for Oxidation Rate, sec-alcohol to corresponding ketone: soluble crude extract, grown on methanol
Protocol: as §1, §2

[11] = test system: purified secondary alcohol dehydrogenase (SADH); test: substrate specificity and Michaelis constants of purified SADH; assay type: biochemical, Pseudomonas sp. ATCC 21439

SMILES | Oxidation Rate, sec-alcohol to corresponding ketone [1] [nmole/min/mg protein] | Conversion Rate, sec-alcohol to corresponding ketone ([2]; Growth Substrate Ethanol) | Conversion Rate, sec-alcohol to corresponding ketone ([2]; Growth Substrate Methanol) | Conversion Rate, sec-alcohol to corresponding ketone ([2]; Growth Substrate Methylamine) | Conversion Rate, sec-alcohol to corresponding ketone ([2]; Growth Substrate Methylformate) | Conversion Rate, sec-alcohol to corresponding ketone ([2]; Growth Substrate Propylamine) | Conversion Rate, sec-alcohol to methyl ketone [3] [μmoles/hr/mg Protein] | Conversion Rate, sec-alcohol to corresponding ketone (Pichia sp. NRRL-Y-11328; Growth Substrate Ethanol) | Conversion Rate, sec-alcohol to corresponding ketone (Pichia sp. NRRL-Y-11328; Growth Substrate Methanol) | Conversion Rate, sec-alcohol to corresponding ketone (Pichia sp. NRRL-Y-11328; Growth Substrate Methylamine) | Conversion Rate, sec-alcohol to corresponding ketone (Pichia sp. NRRL-Y-11328; Growth Substrate Methylformate) | Conversion Rate, sec-alcohol to corresponding ketone (Pichia sp. NRRL-Y-11328; Growth Substrate Propylamine) | Conversion Rate, sec-alcohol to methyl ketone [4] [μmoles/hr/mg Protein] | Conversion Rates, sec-alcohol to corresponding ketone [5] [μmoles/hr/mg protein] | Conversion Rates, sec-alcohol to corresponding ketone [6] [μmoles/hr/mg protein] | Oxidation Rate, sec-alcohol to corresponding ketone [7] [nmole/min/mg protein] | rate of oxidation of secondary alcohols by strains of C1-utilizers [8] | Conversion Rate, sec-alcohol to methyl ketone [9] [μmoles/hr/mg Protein] | Oxidation Rate, sec-alcohol to corresponding ketone [10] [nmole/min/mg protein] | oxidation by purified SADH [11] | other results
CCCC(C)O (stereo not shown) [2-Pentanol, 2-pentanol] | 0.1 | 1.1 μmoles/hr/mg of protein | 1.4 μmoles/hr/mg of protein | 1.2 μmoles/hr/mg of protein | 1.3 μmoles/hr/mg of protein | 0.82 μmoles/hr/mg of protein | 0.82 | 1.0 μmoles/hr/mg of protein | 1.2 μmoles/hr/mg of protein | 0.72 μmoles/hr/mg of protein | 0.98 μmoles/hr/mg of protein | 0.60 μmoles/hr/mg of protein | 1.0 | 2.1 | 0.05 | 0.1 | much slower rate | 1.2 | 0.1 | lower rate | 
CCCCC(C)O (stereo not shown) [2-Hexanol, 2-hexanol] | 0 | 0.54 μmoles/hr/mg of protein | 0.72 μmoles/hr/mg of protein | 0.62 μmoles/hr/mg of protein | 0.70 μmoles/hr/mg of protein | 0.48 μmoles/hr/mg of protein | 0.45 | 0.28 μmoles/hr/mg of protein | 0.50 μmoles/hr/mg of protein | 0.31 μmoles/hr/mg of protein | 0.48 μmoles/hr/mg of protein | 0.21 μmoles/hr/mg of protein | 0.21 | 0.80 | 0.03 | 0 | much slower rate | 0.60 | 0 | lower rate | 
CCC(C)O (stereo not shown) [2-Butanol, 2-butanol] | 2.0 | 4.8 μmoles/hr/mg of protein | 5.8 μmoles/hr/mg of protein | 4.5 μmoles/hr/mg of protein | 5.2 μmoles/hr/mg of protein | 4.0 μmoles/hr/mg of protein | 4.92 | 6.2 μmoles/hr/mg of protein | 6.8 μmoles/hr/mg of protein | 5.1 μmoles/hr/mg of protein | 6.9 μmoles/hr/mg of protein | 2.1 μmoles/hr/mg of protein | 4.9 | 3.5 | 4.7 | 2.4 | highest rate; also recorded: higher rates | 6.2 | 2.5 | highest | Conversion Rate, 2-butanol to 2-butanone ([1]; Growth Substrate CH3 NH2): 1.8 nmoles/min/mg protein; Conversion Rate, 2-butanol to 2-butanone ([1]; Growth Substrate CH3 OH): 2.0 nmoles/min/mg protein; Conversion Rate, 2-butanol to 2-butanone ([1]; Growth Substrate CH4): 3.2 nmoles/min/mg protein; Conversion Rate, 2-butanol to 2-butanone ([1]; Growth Substrate HCOOCH3): 2.0 nmoles/min/mg protein; Conversion Rate, 2-butanol to 2-butanone ([7]; Growth Substrate CH3 NH2): 2.5 nmoles/min/mg protein; Conversion Rate, 2-butanol to 2-butanone ([7]; Growth Substrate CH3 OH): 2.4 nmoles/min/mg protein; Conversion Rate, 2-butanol to 2-butanone ([7]; Growth Substrate CH4): 4.5 nmoles/min/mg protein; Conversion Rate, 2-butanol to 2-butanone ([7]; Growth Substrate HCOOCH3): 2.0 nmoles/min/mg protein; 2-butanol concentration supporting maximum 2-butanone production ([8]; cell suspensions of yeast and Pseudomonas sp. ATCC 21,439, 35 min. incubation): about 50 μmoles; Conversion Rate, 2-butanol to 2-butanone ([10]; Growth Substrate CH3 NH2): 2.0 nmoles/min/mg protein; Conversion Rate, 2-butanol to 2-butanone ([10]; Growth Substrate CH3 OH): 2.5 nmoles/min/mg protein; Conversion Rate, 2-butanol to 2-butanone ([10]; Growth Substrate CH4): 1.8 nmoles/min/mg protein; Conversion Rate, 2-butanol to 2-butanone ([10]; Growth Substrate HCOOCH3): 2.0 nmoles/min/mg protein
